Source: patent US12286442B2, “Methods and materials for increasing transcription factor eb polypeptide levels” (University of Pittsburgh—Of the Commonwealth System of …, priority 2019, dated 2025)

Assays:
[1] = system: TFEB; assay: High content screen measuring TFEB nuclear accumulation (TFEB nuclear/cytosol ratio) in BEAS-2B cells stably expressing TFEB-EGFP; type: cell-based, human; details: 18 hours incubation
Method in brief: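 BEAS-2B cells stably expressing TFEB-EGFP (~2300–2500 per well) pre-incubated 8 hours, then exposed to serially diluted compounds (DMEM low glucose, 2% FBS) for 18 hours, PFA-fixed and DAPI-stained. Imaged nuclear (DAPI mask) vs cytosolic (expanded mask) TFEB-GFP; activity = minimal concentration raising nuclear/cytosol ratio by 25%.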

[2] = system: BEAS-2B cells; assay: Toxicity: compound concentration needed to induce greater than 50 percent of cell loss; type: cell-based, human; details: 18 hours incubation
Method in brief: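 BEAS-2B cells stably expressing TFEB-EGFP treated with serial compound dilutions for 18 h, then PFA-fixed, DAPI-stained and imaged. Toxicity scored as the concentration causing >50% cell loss, binned as ≥25 μM, <25 and >1 μM, or ≤1 μM ("+++").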

## CCc1nc2ccc(Nc3nc(-c4ccncc4)nc4c(C)cccc34)cc2s1 [Compound 148]
[1]
  efficacy (minimal compound concentration needed to increase TFEB nuclear/cytosol ratio by 25%): +++ (“+++” equals ≤1 μM)
[2]
  toxicity (compound concentration needed to induce greater than 50 percent of cell loss): + (cell loss of greater than 50 percent at a concentration that equals or is greater than 25 μM was represented as)

## CCc1nc2ccc(Nc3nc(-c4ccncc4)nc4ccc(OC)cc34)cc2s1 [Compound 149]
[1]
  efficacy (minimal compound concentration needed to increase TFEB nuclear/cytosol ratio by 25%): ++ (“++” equals between ≤25 μM and >1 μM)
[2]
  toxicity (compound concentration needed to induce greater than 50 percent of cell loss): ++ (cell loss of greater than 50 percent at a concentration less than 25 μM and greater than 1 μM was represented as)

## CCc1nc2ccc(Nc3nc(-c4ccncc4)nc4cc(OC)ccc34)cc2s1 [Compound 150]
[1]
  efficacy (minimal compound concentration needed to increase TFEB nuclear/cytosol ratio by 25%): +++ (“+++” equals ≤1 μM)
[2]
  toxicity (compound concentration needed to induce greater than 50 percent of cell loss): ++ (cell loss of greater than 50 percent at a concentration less than 25 μM and greater than 1 μM was represented as)

## CCc1nc2ccc(Nc3nc(-c4ccncc4)nc4ccc(F)cc34)cc2s1 [Compound 151]
[1]
  efficacy (minimal compound concentration needed to increase TFEB nuclear/cytosol ratio by 25%): +++ (“+++” equals ≤1 μM)
[2]
  toxicity (compound concentration needed to induce greater than 50 percent of cell loss): + (cell loss of greater than 50 percent at a concentration that equals or is greater than 25 μM was represented as)

## COc1cccc2nc(-c3ccncc3)nc(Nc3ccc4nc(C(C)C)sc4c3)c12 [Compound 152]
[1]
  efficacy (minimal compound concentration needed to increase TFEB nuclear/cytosol ratio by 25%): ++ (“++” equals between ≤25 μM and >1 μM)
[2]
  toxicity (compound concentration needed to induce greater than 50 percent of cell loss): + (cell loss of greater than 50 percent at a concentration that equals or is greater than 25 μM was represented as)

## COc1cccc2c(Nc3ccc4nc(C(C)C)sc4c3)nc(-c3ccncc3)nc12 [Compound 153]
[1]
  efficacy (minimal compound concentration needed to increase TFEB nuclear/cytosol ratio by 25%): ++ (“++” equals between ≤25 μM and >1 μM)
[2]
  toxicity (compound concentration needed to induce greater than 50 percent of cell loss): + (cell loss of greater than 50 percent at a concentration that equals or is greater than 25 μM was represented as)

## Cc1ccc2nc(-c3ccncc3)nc(Nc3ccc4nc(C(C)C)sc4c3)c2c1 [Compound 154]
[1]
  efficacy (minimal compound concentration needed to increase TFEB nuclear/cytosol ratio by 25%): +++ (“+++” equals ≤1 μM)
[2]
  toxicity (compound concentration needed to induce greater than 50 percent of cell loss): + (cell loss of greater than 50 percent at a concentration that equals or is greater than 25 μM was represented as)

## Cc1cccc2c(Nc3ccc4nc(C(C)C)sc4c3)nc(-c3ccncc3)nc12 [Compound 155]
[1]
  efficacy (minimal compound concentration needed to increase TFEB nuclear/cytosol ratio by 25%): +++ (“+++” equals ≤1 μM)
[2]
  toxicity (compound concentration needed to induce greater than 50 percent of cell loss): + (cell loss of greater than 50 percent at a concentration that equals or is greater than 25 μM was represented as)

## Cc1cccc2c(Nc3cc(F)c4[nH]ccc4c3)nc(-c3ccncc3)nc12 [Compound 156]
[1]
  efficacy (minimal compound concentration needed to increase TFEB nuclear/cytosol ratio by 25%): +++ (“+++” equals ≤1 μM)
[2]
  toxicity (compound concentration needed to induce greater than 50 percent of cell loss): + (cell loss of greater than 50 percent at a concentration that equals or is greater than 25 μM was represented as)

## Fc1cc(Nc2nc(-c3ccncc3)nc3ncccc23)cc2cc[nH]c12 [Compound 157]
[1]
  efficacy (minimal compound concentration needed to increase TFEB nuclear/cytosol ratio by 25%): +++ (“+++” equals ≤1 μM)
[2]
  toxicity (compound concentration needed to induce greater than 50 percent of cell loss): ++ (cell loss of greater than 50 percent at a concentration less than 25 μM and greater than 1 μM was represented as)

## Fc1cccc2c(Nc3cc(F)c4[nH]ccc4c3)nc(-c3ccncc3)nc12 [Compound 158]
[1]
  efficacy (minimal compound concentration needed to increase TFEB nuclear/cytosol ratio by 25%): +++ (“+++” equals ≤1 μM)
[2]
  toxicity (compound concentration needed to induce greater than 50 percent of cell loss): + (cell loss of greater than 50 percent at a concentration that equals or is greater than 25 μM was represented as)

## Cc1ccc(-c2nc(Nc3cccc(F)c3)c3ccccc3n2)cc1 [Compound 159]
[1]
  efficacy (minimal compound concentration needed to increase TFEB nuclear/cytosol ratio by 25%): + (“+” equals >25 μM)
[2]
  toxicity (compound concentration needed to induce greater than 50 percent of cell loss): + (cell loss of greater than 50 percent at a concentration that equals or is greater than 25 μM was represented as)

## O=[N+]([O-])c1cccc(-c2nc(Nc3cccc(F)c3)c3ccccc3n2)c1 [Compound 161]
[1]
  efficacy (minimal compound concentration needed to increase TFEB nuclear/cytosol ratio by 25%): + (“+” equals >25 μM)
[2]
  toxicity (compound concentration needed to induce greater than 50 percent of cell loss): + (cell loss of greater than 50 percent at a concentration that equals or is greater than 25 μM was represented as)

## Nc1c(Cl)cc(Nc2nc(-c3ccncc3)nc3ccccc23)cc1Cl [Compound 162]
[1]
  efficacy (minimal compound concentration needed to increase TFEB nuclear/cytosol ratio by 25%): + (“+” equals >25 μM)
[2]
  toxicity (compound concentration needed to induce greater than 50 percent of cell loss): + (cell loss of greater than 50 percent at a concentration that equals or is greater than 25 μM was represented as)

## COc1ccc(-c2nc(Nc3ccc(C)c(F)c3)c3ccccc3n2)cc1 [Compound 163]
[1]
  efficacy (minimal compound concentration needed to increase TFEB nuclear/cytosol ratio by 25%): + (“+” equals >25 μM)
[2]
  toxicity (compound concentration needed to induce greater than 50 percent of cell loss): + (cell loss of greater than 50 percent at a concentration that equals or is greater than 25 μM was represented as)

## CCCCNc1nc(-c2ccncc2)nc2ccccc12 [Compound 164]
[1]
  efficacy (minimal compound concentration needed to increase TFEB nuclear/cytosol ratio by 25%): + (“+” equals >25 μM)
[2]
  toxicity (compound concentration needed to induce greater than 50 percent of cell loss): + (cell loss of greater than 50 percent at a concentration that equals or is greater than 25 μM was represented as)

## c1ccc2c(NC3CC3)nc(-c3ccncc3)nc2c1 [Compound 165]
[1]
  efficacy (minimal compound concentration needed to increase TFEB nuclear/cytosol ratio by 25%): + (“+” equals >25 μM)
[2]
  toxicity (compound concentration needed to induce greater than 50 percent of cell loss): + (cell loss of greater than 50 percent at a concentration that equals or is greater than 25 μM was represented as)

## CCCN(CCC)c1nc(-c2ccncc2)nc2ccccc12 [Compound 166]
[1]
  efficacy (minimal compound concentration needed to increase TFEB nuclear/cytosol ratio by 25%): + (“+” equals >25 μM)
[2]
  toxicity (compound concentration needed to induce greater than 50 percent of cell loss): + (cell loss of greater than 50 percent at a concentration that equals or is greater than 25 μM was represented as)

## c1ccc(CCNc2nc(-c3ccncc3)nc3ccccc23)cc1 [Compound 167]
[1]
  efficacy (minimal compound concentration needed to increase TFEB nuclear/cytosol ratio by 25%): ++ (“++” equals between ≤25 μM and >1 μM)
[2]
  toxicity (compound concentration needed to induce greater than 50 percent of cell loss): + (cell loss of greater than 50 percent at a concentration that equals or is greater than 25 μM was represented as)

## OCCNc1nc(-c2ccncc2)nc2ccccc12 [Compound 168]
[1]
  efficacy (minimal compound concentration needed to increase TFEB nuclear/cytosol ratio by 25%): + (“+” equals >25 μM)
[2]
  toxicity (compound concentration needed to induce greater than 50 percent of cell loss): + (cell loss of greater than 50 percent at a concentration that equals or is greater than 25 μM was represented as)

## N#CCNc1nc(-c2ccncc2)nc2ccccc12 [Compound 169]
[1]
  efficacy (minimal compound concentration needed to increase TFEB nuclear/cytosol ratio by 25%): + (“+” equals >25 μM)
[2]
  toxicity (compound concentration needed to induce greater than 50 percent of cell loss): + (cell loss of greater than 50 percent at a concentration that equals or is greater than 25 μM was represented as)

## c1ccc2c(NC3CCCCC3)nc(-c3ccncc3)nc2c1 [Compound 170]
[1]
  efficacy (minimal compound concentration needed to increase TFEB nuclear/cytosol ratio by 25%): + (“+” equals >25 μM)
[2]
  toxicity (compound concentration needed to induce greater than 50 percent of cell loss): + (cell loss of greater than 50 percent at a concentration that equals or is greater than 25 μM was represented as)

## c1ccc(CCNc2nc(-c3ccncc3)nc3ccccc23)nc1 [Compound 171]
[1]
  efficacy (minimal compound concentration needed to increase TFEB nuclear/cytosol ratio by 25%): + (“+” equals >25 μM)
[2]
  toxicity (compound concentration needed to induce greater than 50 percent of cell loss): + (cell loss of greater than 50 percent at a concentration that equals or is greater than 25 μM was represented as)

## CS(=O)(=O)CCCNc1nc(-c2ccncc2)nc2ccccc12 [Compound 172]
[1]
  efficacy (minimal compound concentration needed to increase TFEB nuclear/cytosol ratio by 25%): + (“+” equals >25 μM)
[2]
  toxicity (compound concentration needed to induce greater than 50 percent of cell loss): + (cell loss of greater than 50 percent at a concentration that equals or is greater than 25 μM was represented as)

## CC(C#N)CN(C)c1nc(-c2ccncc2)nc2ccccc12 (centres unmarked) [Compound 173]
[1]
  efficacy (minimal compound concentration needed to increase TFEB nuclear/cytosol ratio by 25%): + (“+” equals >25 μM)
[2]
  toxicity (compound concentration needed to induce greater than 50 percent of cell loss): + (cell loss of greater than 50 percent at a concentration that equals or is greater than 25 μM was represented as)

## NS(=O)(=O)CCCNc1nc(-c2ccncc2)nc2ccccc12 [Compound 174]
[1]
  efficacy (minimal compound concentration needed to increase TFEB nuclear/cytosol ratio by 25%): + (“+” equals >25 μM)
[2]
  toxicity (compound concentration needed to induce greater than 50 percent of cell loss): + (cell loss of greater than 50 percent at a concentration that equals or is greater than 25 μM was represented as)

## c1ccc2c(NC3CCN(C4CC4)CC3)nc(-c3ccncc3)nc2c1 [Compound 175]
[1]
  efficacy (minimal compound concentration needed to increase TFEB nuclear/cytosol ratio by 25%): + (“+” equals >25 μM)
[2]
  toxicity (compound concentration needed to induce greater than 50 percent of cell loss): + (cell loss of greater than 50 percent at a concentration that equals or is greater than 25 μM was represented as)

## CCN1CCCC1CNc1nc(-c2ccncc2)nc2ccccc12 (centres unmarked) [Compound 176]
[1]
  efficacy (minimal compound concentration needed to increase TFEB nuclear/cytosol ratio by 25%): ++ (“++” equals between ≤25 μM and >1 μM)
[2]
  toxicity (compound concentration needed to induce greater than 50 percent of cell loss): + (cell loss of greater than 50 percent at a concentration that equals or is greater than 25 μM was represented as)
